Legend:
γ-secretase [1] = target: T1, γ-secretase (Homo sapiens, UniProt P49768); assay: Screening for γ-secretase-modulating activity: Aβtotal in cell supernatant (Alphalisa sandwich immuno-assay); format: cell-based; conditions: SKNBE2 human neuroblastoma cells carrying hAPP 695-wild type, overnight incubation
T1 construct: endogenous in cells; host or cells: SKNBE2 human neuroblastoma cells carrying hAPP 695 wild type
Experimental: (§1) A) Screening of the Compounds of the Invention for γ-Secretase-Modulating Activity
(§2) Screening was carried out using SKNBE2 human neuroblastoma cells carrying the hAPP 695-wild type, grown in Dulbecco's Modified Eagle's Medium/Nutrient mixture F-12 (DMEM/NUT-mix F-12) (HAM) provided by Invitrogen (cat no. 10371-029) containing 5% Serum/Fe supplemented with 1% non-essential amino acids, 1-glutamine 2 mM, Hepes 15 mM, penicillin 50 U/ml (units/ml) and streptomycin 50 μg/ml. Cells were grown to near confluency.
(§3) The screening was performed using a modification of the assay as described in Citron et al (1997) Nature Medicine 3: 67. Briefly, cells were plated in a 384-well plate at 10^4 cells/well in Ultraculture (Lonza, BE12-725F) supplemented with 1% glutamine (Invitrogen, 25030-024), 1% non-essential amino acid (NEAA), penicillin 50 U/ml en streptomycin 50 μg/ml in the presence of test compound at different test concentrations. The cell/compound mixture was incubated overnight at 37° C., 5% CO2. The next day the media were assayed by two sandwich immuno-assays, for Aβ42 and Aβtotal.
(§4) Aβtotal and Aβ42 concentrations were quantified in the cell supernatant using the Aphalisa technology (Perkin Elmer). Alphalisa is a sandwich assay using biotinylated antibody attached to streptavidin coated donorbeads and antibody conjugated to acceptor beads. In the presence of antigen, the beads come into close proximity. The excitation of the donor beads provokes the release of singlet oxygen molecules that trigger a cascade of energy transfer in the acceptor beads, resulting in light emission. To quantify the amount of Aβ42 in the cell supernatant, monoclonal antibody specific to the C-terminus of Aβ42 (JRF/cAβ42/26) was coupled to the receptor beads and biotinylated antibody specific to the N-terminus of Aβ (JRF/AβN/25) was used to react with the donor beads. To quantify the amount of Aβtotal in the cell supernatant, monoclonal antibody specific to the N-terminus of Aβ (JRF/AβN/25) was coupled to the receptor beads and biotinylated antibody specific to the mid region of Aβ (biotinylated 4G8) was used to react with the donor beads.
(§5) The sigmoidal dose response curves were analyzed using non-linear regression analysis with percentage of the control plotted against the log concentration of the compound. A 4-parameter equation was used to determine the IC50.

γ-secretase [2] = target: T1, γ-secretase; assay: Screening for γ-secretase-modulating activity: Aβ42 in cell supernatant (Alphalisa sandwich immuno-assay); format: cell-based; conditions: SKNBE2 human neuroblastoma cells carrying hAPP 695-wild type, overnight incubation
Experimental: as §1, §2, §3, §4
To obtain the values reported in Table 3, the data are calculated as percentage of the maximum amount of amyloid Beta 42 measured in the absence of the test compound.
as §5

| Compound | IC50 (γ-secretase [1]) [µM] | melting point [°C] | IC50 (γ-secretase [2]) [µM] |
| --- | --- | --- | --- |
| Cc1cn(-c2ccc3n(c2=O)C[C@@H]2CC[C@H](Cc4cc(C(F)(F)F)cc(C(F)(F)F)c4)N2C3=O)cn1 (single isomer, unassigned) [Compound 3, 3-[[3,5-bis(trifluoromethyl)phenyl]methyl]-2,3,11,11a-tetrahydro-8-(4-methyl-1H-imidazol-1-yl)-1H-pyrido[1,2-a]pyrrolo[1,2-d]pyrazine-5,9-dione ((3S, 11aR) or (3R, 11aS))] | > 10 | 241.17 | 0.42 |
| Cc1cn(-c2ccc3n(c2=O)C[C@H]2CC[C@H](c4ccc(Cl)c(Cl)c4)N2C3=O)cn1 [Compound 20, (3R,11aR)-3-(3,4-dichlorophenyl)-2,3,11,11a-tetrahydro-8-(4-methyl-1H-imidazol-1-yl)-1H-pyrido[1,2-a]pyrrolo[1,2-d]pyrazine-5,9-dione] | 9.33 | – | 4.47 |
| Cc1cn(-c2ccc3n(c2=O)C[C@H]2CC[C@H](c4cc(C(F)(F)F)cc(C(F)(F)F)c4)N2C3=O)cn1 [Compound 15, (3R,11aR)-3-[3,5-bis(trifluoromethyl)phenyl]-2,3,11,11a-tetrahydro-8-(4-methyl-1H-imidazol-1-yl)-1H-pyrido[1,2-a]pyrrolo[1,2-d]pyrazine-5,9-dione] | > 10 | – | 4.57 |
| Cc1cn(-c2ccc3n(c2=O)C[C@@H]2CC[C@H](c4cc(C(F)(F)F)cc(C(F)(F)F)c4)N2C3=O)cn1 [Compound 18, (3R,11aS)-3-[3,5-bis(trifluoromethyl)phenyl]-2,3,11,11a-tetrahydro-8-(4-methyl-1H-imidazol-1-yl)-1H-pyrido[1,2-a]pyrrolo[1,2-d]pyrazine-5,9-dione] | > 10 | – | > 10 |
| Cc1cn(-c2ccc3n(c2=O)C[C@H]2CC[C@@H](c4ccc(Cl)c(Cl)c4)N2C3=O)cn1 [Compound 21, (3S,11aR)-3-(3,4-dichlorophenyl)-2,3,11,11a-tetrahydro-8-(4-methyl-1H-imidazol-1-yl)-1H-pyrido[1,2-a]pyrrolo[1,2-d]pyrazine-5,9-dione] | > 15.1 | – | 1.32 |
| Cc1cn(-c2ccc3n(c2=O)C[C@@H]2CCC[C@@H](Cc4cc(C(F)(F)F)cc(C(F)(F)F)c4)N2C3=O)cn1 (single isomer, unassigned) [Compound 7, 10-[[3,5-bis(trifluoromethyl)phenyl]methyl]-6,6a,7,8,9,10-hexahydro-3-(4-methyl-1H-imidazol-1-yl)-dipyrido[1,2-a:1′,2′-d]pyrazine-4,12-dione ((6aR, 10R) or (6aS, 10S))] | > 10 | 231.07 | 1.12 |
| Cc1cn(-c2ccc3n(c2=O)C[C@@H]2CCC[C@H](Cc4cc(C(F)(F)F)cc(C(F)(F)F)c4)N2C3=O)cn1 (single isomer, unassigned) [Compound 9, 10-[[3,5-bis(trifluoromethyl)phenyl]methyl]-6,6a,7,8,9,10-hexahydro-3-(4-methyl-1H-imidazol-1-yl)-dipyrido[1,2-a:1′,2-d]pyrazine-4,12-dione ((6aR, 10S) or (6aS, 10R))] | > 10 | 246.53 | 0.29 |
| Cc1cn(-c2ccc3n(c2=O)C[C@H]2CC[C@@H](c4cc(C(F)(F)F)cc(C(F)(F)F)c4)N2C3=O)cn1 [Compound 19, (3S,11aR)-3-[3,5-bis(trifluoromethyl)phenyl]-2,3,11,11a-tetrahydro-8-(4-methyl-1H-imidazol-1-yl)-1H-pyrido[1,2-a]pyrrolo[1,2-d]pyrazine-5,9-dione] | > 10 | – | 0.72 |
| Cc1cn(-c2ccc3n(c2=O)C[C@@H]2CCC[C@H](c4cc(C(F)(F)F)cc(C(F)(F)F)c4)N2C3=O)cn1 (single isomer, unassigned) [Compound 13, 10-[3,5-bis(trifluoromethyl)phenyl]-6,6a,7,8,9,10-hexahydro-3-(4-methyl-1H-imidazol-1-yl)-dipyrido[1,2-a: 1′,2′-d]pyrazine-4,12-dione ((6aS, 10R) or (6aR, 10S)] | – | – | > 10 |
| Cc1cn(-c2ccc3n(c2=O)C[C@@H]2CC[C@H](Cc4cc(C(F)(F)F)cc(C(F)(F)F)c4)N2C3=O)cn1 (single isomer, unassigned) [Compound 5, 3-[[3,5-bis(trifluoromethyl)phenyl]methyl]-2,3,11,11a-tetrahydro-8-(4-methyl-1H-imidazol-1-yl)-1H-pyrido[1,2-a]pyrrolo[1,2-d]pyrazine-5,9-dione ((3R, 11aS) or (3S, 11aR))] | > 10 | 238.34 | 0.98 |
| Cc1cn(-c2ccc3n(c2=O)C[C@@H]2CC[C@@H](Cc4cc(C(F)(F)F)cc(C(F)(F)F)c4)N2C3=O)cn1 (single isomer, unassigned) [Compound 2, 3-[[3,5-bis(trifluoromethyl)phenyl]methyl]-2,3,11,11a-tetrahydro-8-(4-methyl-1H-imidazol-1-yl)-1H-pyrido[1,2-a]pyrrolo[1,2-d]pyrazine-5,9-dione ((3R, 11aR) or (3S, 11aS))] | > 10 | 255.25 | > 10 |

The next molecules have a lower IC50 (γ-secretase [2]) than those just listed; values first:

| IC50 (γ-secretase [1]) [µM] | melting point [°C] | IC50 (γ-secretase [2]) [µM] | Compound |
| --- | --- | --- | --- |
| 3.16 | 231.74 | 0.13 | Cc1cn(-c2ccc3n(c2=O)C[C@@H]2CCC[C@@H](Cc4cc(C(F)(F)F)cc(C(F)(F)F)c4)N2C3=O)cn1 (single isomer, unassigned) [Compound 10, 10-[[3,5-bis(trifluoromethyl)phenyl]methyl]-6,6a,7,8,9,10-hexahydro-3-(4-methyl-1H-imidazol-1-yl)-dipyrido[1,2-a:1′,2-d]pyrazine-4,12-dione ((6aS, 10S) or (6aR, 10R))] |
| > 10 | – | 0.24 | Cc1cn(-c2ccc3n(c2=O)C[C@@H]2CCC[C@H](c4cc(C(F)(F)F)cc(C(F)(F)F)c4)N2C3=O)cn1 (single isomer, unassigned) [Compound 12, 10-[3,5-bis(trifluoromethyl)phenyl]-6,6a,7,8,9,10-hexahydro-3-(4-methyl-1H-imidazol-1-yl)-dipyrido[1,2-a: 1′,2′-d]pyrazine-4,12-dione ((6aR, 10S) or (6aS, 10R))] |
| > 10 | 247.06 | 0.11 | Cc1cn(-c2ccc3n(c2=O)C[C@@H]2CCC[C@H](Cc4cc(C(F)(F)F)cc(C(F)(F)F)c4)N2C3=O)cn1 (single isomer, unassigned) [Compound 8, 10-[[3,5-bis(trifluoromethyl)phenyl]methyl]-6,6a,7,8,9,10-hexahydro-3-(4-methyl-1H-imidazol-1-yl)-dipyrido[1,2-a:1′,2-d]pyrazine-4,12-dione ((6aS, 10R) or (6aR, 10S))] |
| > 10 | – | 0.19 | Cc1cn(-c2ccc3n(c2=O)C[C@@H]2CC[C@@H](c4cc(C(F)(F)F)cc(C(F)(F)F)c4)N2C3=O)cn1 [Compound 16, (3S,11aS)-3-[3,5-bis(trifluoromethyl)phenyl]-2,3,11,11a-tetrahydro-8-(4-methyl-1H-imidazol-1-yl)-1H-pyrido[1,2-a]pyrrolo[1,2-d]pyrazine-5,9-dione] |
| > 10 | 234.89 | 0.16 | Cc1cn(-c2ccc3n(c2=O)CC2CCC(Cc4cc(C(F)(F)F)cc(C(F)(F)F)c4)N2C3=O)cn1 (stereo not drawn) [Compound 1, 3-[[3,5-bis(trifluoromethyl)phenyl]methyl]-2,3,11,11a-tetrahydro-8-(4-methyl-1H-imidazol-1-yl)-1H-pyrido[1,2-a]pyrrolo[1,2-d]pyrazine-5,9-dione] |
